From patent publication US6737383B1, “Herbicidal oxadiazolidines” (priority 1999, dated 2004)

How the values were obtained:
giant foxtail = test: Test B pre/postemergence giant foxtail; format: in vivo, Setaria faberii
Procedure, shortened: (§1)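 Herbicidal effect was estimated by eye on a ten-point control scale after plants spent twelve to sixteen days in a greenhouse following soil or foliar treatment. Foliar sprays targeted plants at one to four leaves; all doses were formulated in a non-phytotoxic solvent with surfactant.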

pigweed = test: Test B pre/postemergence pigweed; format: in vivo, Amaranthus retroflexus
Procedure, shortened: as §1

surinam grass = test: Test B pre/postemergence surinam grass; format: in vivo, Brachiaria decumbens
Procedure, shortened: as §1

wheat = test: Test B pre/postemergence wheat; format: in vivo, Triticum aestivum
Procedure, shortened: as §1

corn = test: Test B pre/postemergence corn; format: in vivo, Zea mays
Procedure, shortened: as §1

cocklebur = test: Test B pre/postemergence cocklebur; format: in vivo, Xanthium strumarium
Procedure, shortened: as §1

morningglory = test: Test B pre/postemergence morningglory; format: in vivo, Ipomoea hederacea
Procedure, shortened: as §1

rice = test: Test B flood test rice; format: in vivo, Oryza sativa
Procedure, shortened: (§2)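 Flood test on plants grown to the 2-leaf stage; treated plants kept in greenhouse twelve to sixteen days, then visually rated against controls on a 0 (no effect) to 10 (complete control) scale.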

wild oat = test: Test B pre/postemergence wild oat; format: in vivo, Avena fatua
Procedure, shortened: as §1

blackgrass = test: Test B pre/postemergence blackgrass; format: in vivo, Alopecurus myosuroides
Procedure, shortened: as §1

bamyardgrass = test: Test B flood test barnyardgrass; format: in vivo, Echinochloa crus-galli
Procedure, shortened: as §2

bedstraw = test: Test B pre/postemergence bedstraw; format: in vivo, Galium aparine
Procedure, shortened: as §1

sugar beet = test: Test B pre/postemergence sugar beet; format: in vivo, Beta vulgaris
Procedure, shortened: as §1

crabgrass = test: Test B pre/postemergence crabgrass; format: in vivo, Digitaria sanguinalis
Procedure, shortened: as §1

purple nutsedge = test: Test B pre/postemergence purple nutsedge; format: in vivo, Cyperus rotundus
Procedure, shortened: as §1

rape = test: Test B pre/postemergence rape; format: in vivo, Brassica napus
Procedure, shortened: as §1

[1] = Postemergence, Rate 62 g/ha, scale 0 to 10, 0 is no effect, 10 is complete control
[2] = Postemergence, Rate 125 g/ha, scale of 0 to 10 where 0 is no effect and 10 is complete control
[3] = Postemergence, Rate 250 g/ha, scale of 0 to 10, 0 is no effect, 10 is complete control
[4] = Postemergence, Rate 500 g/ha, scale of 0 to 10 where 0 is no effect and 10 is complete control
[5] = Preemergence, Rate 62 g/ha, scale of 0 to 10 where 0 is no effect and 10 is complete control
[6] = Preemergence, Rate 125 g/ha, scale of 0 to 10 where 0 is no effect and 10 is complete control
[7] = Preemergence, Rate 250 g/ha, scale 0 to 10 (0 no effect, 10 complete control)
[8] = Preemergence, Rate 500 g/ha, scale of 0 to 10 where 0 is no effect and 10 is complete control
[9] = Rate 62 g/ha, flood test species, Pre-emergence, visual evaluation after twelve to sixteen days
[10] = Rate 125 g/ha, under heading Pre-emergence, flood test species, visual evaluation after twelve to sixteen days
[11] = Rate 250 g/ha, Pre-emergence (flood test species), scale 0 to 10, 0 is no effect, 10 is complete control
[12] = Rate 500 g/ha, Pre-emergence section of Table B, 0 to 10 scale (0 no effect, 10 complete control)

CC(C)N(C(=O)n1oc(=O)n(Cc2nnc(Cl)s2)c1=O)c1ccc(F)cc1 [Compound 646]
Plant response rating, Giant foxtail (giant foxtail; [1]): 0 | Giant foxtail plant response rating (giant foxtail; [2]): 0 | Giant foxtail plant response rating (giant foxtail; [3]): 0 | Plant response rating, Giant foxtail (giant foxtail; [4]): 0 | Giant foxtail plant response rating (giant foxtail; [5]): 0 | Giant foxtail plant response rating (giant foxtail; [6]): 0 | Plant response rating, Giant foxtail (giant foxtail; [7]): 0 | Plant response rating, Giant foxtail (giant foxtail; [8]): 0 | Plant response rating, Redroot pigweed (pigweed; [1]): 0 | Redroot pigweed plant response rating (pigweed; [2]): 0 | Redroot pigweed plant response rating (pigweed; [5]): 0 | Redroot pigweed plant response rating (pigweed; [6]): 0 | Plant response rating, Redroot pigweed (pigweed; [7]): 0 | Plant response rating, Redroot pigweed (pigweed; [8]): 0 | Plant response rating, B. signalgrass (surinam grass; [1]): 0 | Plant response rating, B. signalgrass (surinam grass; [2]): 0 | B. signalgrass plant response rating (surinam grass; [3]): 0 | Plant response rating, B. signalgrass (surinam grass; [4]): 0 | B. signalgrass plant response rating (surinam grass; [5]): 0 | B. signalgrass plant response rating (surinam grass; [6]): 0 | Plant response rating, B. signalgrass (surinam grass; [7]): 0 | Plant response rating, B. signalgrass (surinam grass; [8]): 0 | Plant response rating, Wheat (wheat; [1]): 0 | Wheat plant response rating (wheat; [2]): 0 | Wheat plant response rating (wheat; [5]): 0 | Wheat plant response rating (wheat; [6]): 0 | Plant response rating, Wheat (wheat; [7]): 0 | Plant response rating, Wheat (wheat; [8]): 0 | Plant response rating, Corn (corn; [1]): 0 | Corn plant response rating (corn; [2]): 0 | Corn plant response rating (corn; [3]): 0 | Plant response rating, Corn (corn; [4]): 0 | Corn plant response rating (corn; [5]): 0 | Corn plant response rating (corn; [6]): 0 | Plant response rating, Corn (corn; [7]): 0 | Plant response rating, Corn (corn; [8]): 0 | Plant response rating, Cocklebur (cocklebur; [1]): 0 | Cocklebur plant response rating (cocklebur; [2]): 0 | Cocklebur plant response rating (cocklebur; [3]): 0 | Plant response rating, Cocklebur (cocklebur; [4]): 0 | Cocklebur plant response rating (cocklebur; [5]): 0 | Cocklebur plant response rating (cocklebur; [6]): 0 | Plant response rating, Cocklebur (cocklebur; [7]): 0 | Plant response rating, Cocklebur (cocklebur; [8]): 0 | Plant response rating, Morningglory (morningglory; [1]): 0 | Morningglory plant response rating (morningglory; [2]): 0 | Morningglory plant response rating (morningglory; [3]): 0 | Plant response rating, Morningglory (morningglory; [4]): 4 | Morningglory plant response rating (morningglory; [5]): 0 | Morningglory plant response rating (morningglory; [6]): 0 | Plant response rating, Morningglory (morningglory; [7]): 0 | Plant response rating, Morningglory (morningglory; [8]): 0 | Plant response rating, Rice (0 to 10 scale, 0 is no effect, 10 is complete control) (rice; [9]): 0 | Rice plant response rating (0 to 10 scale, 0 is no effect, 10 is complete control) (rice; [10]): 0 | Rice plant response rating (rice; [11]): 0 | Rice plant response rating (rice; [12]): 0 | Plant response rating, Wild oats (wild oat; [1]): 0 | Wild oats plant response rating (wild oat; [2]): 0 | Wild oats plant response rating (wild oat; [5]): 0 | Wild oats plant response rating (wild oat; [6]): 0 | Plant response rating, Wild oats (wild oat; [7]): 0 | Plant response rating, Wild oats (wild oat; [8]): 0 | Plant response rating, Blackgrass (blackgrass; [1]): 0 | Blackgrass plant response rating (blackgrass; [2]): 0 | Blackgrass plant response rating (blackgrass; [3]): 0 | Plant response rating, Blackgrass (blackgrass; [4]): 0 | Blackgrass plant response rating (blackgrass; [5]): 0 | Blackgrass plant response rating (blackgrass; [6]): 0 | Plant response rating, Blackgrass (blackgrass; [7]): 0 | Plant response rating, Blackgrass (blackgrass; [8]): 0 | Plant response rating, Barnyardgrass (0 to 10 scale, 0 is no effect, 10 is complete control) (bamyardgrass; [9]): 0 | Barnyardgrass plant response rating (0 to 10 scale, 0 is no effect, 10 is complete control) (bamyardgrass; [10]): 0 | Barnyardgrass plant response rating (bamyardgrass; [11]): 0 | Barnyardgrass plant response rating (bamyardgrass; [12]): 0 | Plant response rating, Bedstraw (bedstraw; [1]): 0 | Bedstraw plant response rating (bedstraw; [3]): 0 | Bedstraw plant response rating (bedstraw; [5]): 0 | Plant response rating, Sugarbeets (sugar beet; [1]): 0 | Sugarbeets plant response rating (sugar beet; [2]): 0 | Sugarbeets plant response rating (sugar beet; [5]): 0 | Sugarbeets plant response rating (sugar beet; [6]): 0 | Plant response rating, Sugarbeets (sugar beet; [7]): 0 | Plant response rating, Sugarbeets (sugar beet; [8]): 0 | Plant response rating, Crabgrass (crabgrass; [1]): 0 | Crabgrass plant response rating (crabgrass; [2]): 0 | Crabgrass plant response rating (crabgrass; [3]): 0 | Plant response rating, Crabgrass (crabgrass; [4]): 1 | Crabgrass plant response rating (crabgrass; [6]): 0 | Plant response rating, Crabgrass (crabgrass; [7]): 0 | Plant response rating, Crabgrass (crabgrass; [8]): 0 | Plant response rating, Nutsedge (purple nutsedge; [1]): 0 | Nutsedge plant response rating (purple nutsedge; [2]): 0 | Plant response rating, Nutsedge (purple nutsedge; [4]): 0 | Nutsedge plant response rating (purple nutsedge; [5]): 0 | Nutsedge plant response rating (purple nutsedge; [6]): 0 | Plant response rating, Nutsedge (purple nutsedge; [7]): 0 | Plant response rating, Nutsedge (purple nutsedge; [8]): 0 | Plant response rating, Rape (rape; [1]): 0 | Rape plant response rating (rape; [2]): 0 | Plant response rating, Rape (rape; [4]): 0 | Rape plant response rating (rape; [5]): 0 | Rape plant response rating (rape; [6]): 0 | Plant response rating, Rape (rape; [7]): 0 | Plant response rating, Rape (rape; [8]): 0
